Assays:
Format in all cases: cell-based
MOLT-4 = assay: Cytotoxicity against human MOLT4 cells assessed as effect on cell growth at 10 uM incubated for 48 hrs by sulforhodamine B assay; settings: molt-4, 48 h
NCI-H522 = assay: Cytotoxicity against human NCI-H522 cells assessed as effect on cell growth at 10 uM incubated for 48 hrs by sulforhodamine B assay; settings: nci-h522, 48 h
HCT-116 = assay: Cytotoxicity against human HCT116 cells assessed as effect on cell growth at 10 uM incubated for 48 hrs by sulforhodamine B assay; settings: hct-116, 48 h
SK-MEL-5 = assay: Cytotoxicity against human SK-MEL-5 cells assessed as effect on cell growth at 10 uM incubated for 48 hrs by sulforhodamine B assay; settings: sk-mel-5, 48 h
SK-MEL-2 = assay: Cytotoxicity against human SK-MEL-2 cells assessed as effect on cell growth at 10 uM incubated for 48 hrs by sulforhodamine B assay; settings: sk-mel-2, 48 h
OVCAR-3 = assay: Cytotoxicity against human OVCAR3 cells assessed as effect on cell growth at 10 uM incubated for 48 hrs by sulforhodamine B assay; settings: ovcar-3, 48 h
SF-539 = assay: Cytotoxicity against human SF539 cells assessed as effect on cell growth at 10 uM incubated for 48 hrs by sulforhodamine B assay; settings: sf-539, 48 h
UACC-62 = assay: Cytotoxicity against human UACC62 cells assessed as effect on cell growth at 10 uM incubated for 48 hrs by sulforhodamine B assay; settings: uacc-62, 48 h
CCRF-CEM = assay: Cytotoxicity against human CCRF-CEM cells assessed as effect on cell growth at 10 uM incubated for 48 hrs by sulforhodamine B assay
HOP-92 = assay: Cytotoxicity against human HOP92 cells assessed as effect on cell growth at 10 uM incubated for 48 hrs by sulforhodamine B assay; settings: hop-92, 48 h
SNB-75 = assay: Cytotoxicity against human SNB75 cells assessed as effect on cell growth at 10 uM incubated for 48 hrs by sulforhodamine B assay; settings: snb-75, 48 h
MDA-MB-435 = assay: Cytotoxicity against human MDA-MB-435 cells assessed as effect on cell growth at 10 uM incubated for 48 hrs by sulforhodamine B assay; settings: mda-mb-435, 48 h
HCC 2998 = assay: Cytotoxicity against human HCC2998 cells assessed as effect on cell growth at 10 uM incubated for 48 hrs by sulforhodamine B assay; settings: hcc 2998, 48 h
NCI-H226 = assay: Cytotoxicity against human NCI-H226 cells assessed as effect on cell growth at 10 uM incubated for 48 hrs by sulforhodamine B assay; settings: nci-h226, 48 h
HL-60(TB) = assay: Cytotoxicity against human HL-60(TB) cells assessed as effect on cell growth at 10 uM incubated for 48 hrs by sulforhodamine B assay
HOP-62 = assay: Cytotoxicity against human HOP62 cells assessed as effect on cell growth at 10 uM incubated for 48 hrs by sulforhodamine B assay; settings: hop-62, 48 h
SR = assay: Cytotoxicity against human SR cells assessed as effect on cell growth at 10 uM incubated for 48 hrs by sulforhodamine B assay
A549 = assay: Cytotoxicity against human A549/ATCC cells assessed as effect on cell growth at 10 uM incubated for 48 hrs by sulforhodamine B assay; settings: a549, 48 h
Hs-578T = assay: Cytotoxicity against human Hs 578T cells assessed as effect on cell growth at 10 uM incubated for 48 hrs by sulforhodamine B assay
M14 = assay: Cytotoxicity against human M14 cells assessed as effect on cell growth at 10 uM incubated for 48 hrs by sulforhodamine B assay; settings: m14, 48 h

Measured: Activity

COc1ccc(N2C(=O)CC[C@H]2C(=O)NCc2ccc(Cl)cc2Cl)cc1
Non-Toxic: all assays above

O=C(NCc1ccc(Cl)cc1Cl)[C@@H]1COC(=O)N1c1cccs1
Non-Toxic: all assays above

CN1C(=O)C(C)(C)C[C@H]1C(=O)NCc1cccc(C(F)(F)F)c1Cl
Non-Toxic: all assays above

O=C(NCc1ccc(Cl)cc1Cl)[C@@H]1CCC(=O)N1c1cncs1
Non-Toxic: all assays above

O=C(NCc1ccc(Cl)cc1Cl)[C@@H]1CCC(=O)N1c1cscn1
Non-Toxic: all assays above

CN(Cc1ccccc1)C(=O)[C@@H]1CCC(=O)N1Cc1ccc(Cl)cc1Cl
Non-Toxic: all assays above

COc1ccc(NC(=O)[C@@H]2CCC(=O)N2)cc1OC
Non-Toxic: all assays above

CN(C)/C=C1\C[C@H]2C(=O)N(/C(=C/N(C)C)c3ccncc3)C(N(C)C)N2C1=O (stereo not given in full)
Non-Toxic: all assays above

COc1cc(CNC(=O)[C@@H]2CCC(=O)N2)cc(OC)c1OC
Non-Toxic: all assays above

CN1CCN(/C=C2\C[C@@H](C(=O)NCc3ccc(Cl)cc3Cl)N(c3cccs3)C2=O)CC1
Non-Toxic: all assays above

O=C(NCc1ccc(Cl)cc1Cl)[C@@H]1CCC(=O)N1c1ccsc1
Non-Toxic: all assays above

COc1ccccc1CN1C(=O)[C@@H]2C/C(=C\N(C)C)C(=O)N2C1N(C)C (stereo not given in full)
Non-Toxic: all assays above

O=C1N[C@H](C(=O)NCc2ccc(Cl)cc2Cl)CO1
Non-Toxic: all assays above

COc1cc(CN/C=C2\C[C@@H](C(=O)NCc3ccc(Cl)cc3Cl)NC2=O)cc(OC)c1OC
Non-Toxic: all assays above
